Reference: patent US20090317376A1, “Compositions And Methods For Lipo Modeling” (Georgetown University MEDICAL SCHOOL, priority 2005, published 2009)
“Also recorded” adds a separate entry of the source.

Test system: abdominal fat pad
Assay: Local NPY or Y2R antagonist treatment of the abdominal fat pad (ob/ob, WT, eNOS−/− mice)
Assay type: in vivo
Conditions: for capillary density / density of von Willebrand factor positive microvessels in abdominal fat: Y2R antagonist intra-fat vs vehicle; for fat in the region of the pellet (MRI thresholded for fat): compared to Placebo pellets, FIG. 9; for adipocyte number and size, Y2R staining in subcutaneous abdominal fat pad (immunohistochemistry): FIG. 10
Experimental: Eight week old ob/ob mice are used to study the growth of adipose tissue when treated with growth factor NPY versus antagonist. Whether the Y2R antagonist causes regression of fat deposits is determined using an antagonist in older 3-6 month old ob/ob mice. […] Fat pads (subcutaneous abdominal, omental, subcutaneous, sternal, and interscapular) are harvested and examined to determine whether there is hyperplasia, hypertrophy, or apoptosis of the fat cells. Whether NPY-mediated angiogenesis is involved in adipose tissue growth is determined. The anti-angiogenic effects and consequences of Y2R antagonist on adipose tissue growth is determined by subcutaneous injections of Y2R antagonist BIIE0246 (0.2 ml, 1 μM, daily/14 days) periabdominally into the abdominal fat pad or subcutaneous implantation of a slow-release pellet containing BIE0246 (10 μg/14 days) followed by an evaluation of the fat deposits by MRI. These fat pads are then harvested, weighed, and stained for endothelial markers and NPYRs. Fat pads are further characterized by RT-PCR, quantitative real-time PCR, and ELISA.
NPY slow-release pellets (1 μg/14 days) are inserted subcutaneously into the abdominal fat pad of ob/ob, C57BL/6 and SV129 WT mice. […] NPY pellets are also inserted into eNOS^−/− -mice. […] Specific peptide Y2R antagonist, BIIE0246, is subcutaneously injected periabdominally (0.2 ml, 1 μM, daily/14 days) or is given in the form of a slow release pellet (10 μg/14 days). […] Changes in visceral fat are visualized by MRI and quantified by volumetric calculations (FIG. 9). Fat pad weight is also measured upon euthanasia of the mice (FIG. 8).
In vivo treatment of murine model of obesity with antagonist: 6-week-old mice from four murine strains: C57BL-6, ob/ob, SV129, and eNOS^−/− are used. The mice are separated into treatment groups to compare the effects of diet, stress, NPY and specific receptor antagonists. The mice are weighed every other day during the course of the treatment. Control groups for the transgenic mice are matched by background strain, age, and gender. WT C57BL/6 mice (a background strain predisposed to weight gain [64]) is fed a “comfort food diet” consisting of lard and sugar and subjected to cold stress (1 hour in a cage with 1 cm of ice and water at the base of the cage). NPY is delivered locally by the implantation of a NPY slow-release pellet ([…]) into the abdominal fat pad. NPY receptor antagonists or antisense ODN is delivered by rotating daily subcutaneous injections (0.2 ml, 1 μM, daily/14 days) in the abdominal region. 20-mer phosphorothioate oligonucleotide antisense, targeted forward from rat Y2-gene transcription initiation codon (5-[…]-3′) (Molecular Research Laboratories, Herndon, Va.) is used. The scrambled antisense sequence contains some modified deoxynucleotides in a random order (5′-[…]-3′).
Tissue sample collection and processing: After treatment, fat pads are harvested from: 1) subcutaneous abdominal, 2) intra-abdominal (omental), 3) inguinal, 4) interscapular. The total central fat (abdominal region only) weight (FW) and FW to percent of body weight (F/B) is measured. The adipose tissue is processed for paraffin embedding and sections, […], are collected on glass slides for immunohistochemistry. 50 mg of tissue is used for quantitative real-time RT-PCR.
Magnetic Resonance Imaging (MRI): A Brukker 7-Tesla small-animal magnetic resonance imager coil is used to visualize and noninvasively quantitate various fat depots. A 3-dimensional (3D) T2-weighted (T2W) imaging protocol optimized for high contrast fat-imaging is implemented. […] Quantification of the total body fat as well as separate specific fat depots is calculated using thresholding and voxel count plugins from NIH image J software. VolumeJ is used to render, in a 3D image, the various fat depots.

[1] = 8-week old ob/ob mice, s.c. 0.2 ml, 1 μM, daily/14 days or pellet 10 μg/14 days, vs saline/PLC
[2] = BIIE0246 1 μM/day s.c. into the abdominal pads, within 2-weeks
[3] = NPY 1 μg/14 day-pellet, both obese and lean mice
[4] = NPY slow-release pellet 1 μg/14 days vs placebo, ob/ob, C57BL/6 and SV129 WT mice

Molecule	decrease in F/B [1] [%]	decrease in FW [1] [%]	decrease of abdominal pad volume [2] [%]	decrease of abdominal pad weight [2] [%]	capillary density / density of von Willebrand factor positive microvessels in abdominal fat (listed as Y2R antagonist)	capillary density / density of von Willebrand factor positive microvessels in abdominal fat (listed as Y2R-antagonist)	fat in the region of the pellet (MRI thresholded for fat)	TUNEL-positive staining of endothelial cells and adipocytes (intra-fat injections of Y2R antagonist)	adipocyte number and size, Y2R staining in subcutaneous abdominal fat pad (immunohistochemistry) (ob/ob mice)	subcutaneous abdominal adipose tissue volume (MRI) [3]	subcutaneous abdominal adipose tissue weight (g) [3]	WAT cellularity, proliferation of small adipocytes (NPY in WT mice)	FW to body weight ratio (F/B) (NPY pellet, eNOS−/− mice)	total central fat weight (FW) / fat pad weight (NPY pellet, eNOS−/− mice)	FW to body weight ratio (F/B) [4]	total central fat weight (FW) / fat pad weight [4]	adipogenic activity in eNOS−/− mice (mice deficient in endothelial nitric oxide synthase)	visceral fat (ob/ob mice, NPY, FIG. 8)
N=C(N)NCCC[C@H](NC(=O)CC1(CC(=O)N2CCN(C3c4ccccc4NC(=O)c4ccccc43)CC2)CCCC1)C(=O)NCCn1c(=O)n(-c2ccccc2)n(-c2ccccc2)c1=O (some centres unmarked) [BIIE0246]	40	40	50	50	decreased the density of von Willebrand-positive microvessels	significant decrease in capillary density	decreased fat	increasing TUNEL-positive staining	fewer but larger adipocytes and fewer Y2Rs	–	–	–	–	–	–	–	–	–
neuropeptide Y [NPY]	–	–	–	–	–	–	increased fat	–	greater number of smaller adipocytes	significantly increased	significantly increased	mimicked	no significant weight gain	no significant weight gain	significant increase	significant increase; also recorded: Increase of fat pad weight	resistant to NPY's adipogenic activity	increases visceral fat
